The text below walks through data of patent US12636253B2, “Modified release compositions of nafamostat and methods of using same” (Ensysce Biosciences Inc., priority 2021, dated 2026).

The conditions of data set [1]: cited from earlier work.
A short description of data set [2]: Effect of nafamostat on plasma oxycodone after oral KC-8 in rats. It counts as in vivo. Particulars: nafamostat co-administered with an oxycodone or hydromorphone derivative. The protocol: The drug nafamostat mesylate was added to the formulations containing the KC-8 oxycodone-derivative. In the examples described herein, the terms “nafamostat mesylate” and “nafamostat” are used interchangeably.
Formulations containing both KC-8 and optionally nafamostat were administered orally to rats. The KC-8 dose was 5 mg/kg and the nafamostat concentration was 0, 0.1, 0.5, or 1 mg/kg. Plasma concentrations of active oxycodone were measured at various time intervals over 24 hours after administration.
In contrast, additional nafamostat reduced the maximum oxycodone concentration to a peak of about 0.75 ng/ml at about 5 hours. The error bars represent one standard deviation.
In particular, the rats received 50 mg/kg of KC-8 and 0, 1, 5, or 10 mg/kg of nafamostat. With zero nafamostat, blood plasma concentration experienced a maximum of about 22 ng/ml at about 2 hours, wherein the concentration rapidly descended thereafter. In alignment with the data of FIG. 2, higher concentrations of nafamostat reduced the peak concentration to about 3 ng/ml at about 8 hours.

A short description of data set [3]: Blood hydromorphone after 1, 3, 6 or 10 pills of PF329 with or without nafamostat in rats. Particulars: rats, 1, 3, 6 or 10 PF329 pills containing nafamostat (FIG. 5). It counts as in vivo. An excerpt: The rat experiments were repeated with a derivative of hydromorphone (referred to herein as PF329), which is another known pain medication. FIGS. 4 and 5 show the blood concentration of active hydromorphone (HM) after the administration of 1, 3, 6, or 10 pills, either without or with nafamostat.

Where two headings read alike, the source gives them in different places.

On to `COc1ccc2c3c1O[C@H]1C(OC(=O)N(C)CC(C)(C)CNC(=O)[C@H](CCCNC(=N)N)NC(=O)CNC(=O)CC(=O)O)=CC[C@@]4(O)[C@@H](C2)N(C)CC[C@]314` [KC-8, N-1-[3-(oxycodone-6-enol-carbonyl-methyl-amino)-2,2-dimethyl-propylamine]-arginine-glycine-malonic acid], for which the safety and tolerability result in data set [1] (previous SAD study, doses of up to 200 mg KC-8 (80 mg oxycodone)) was “safe and well tolerated”.

As for `N=C(N)c1ccc2cc(OC(=O)c3ccc(N=C(N)N)cc3)ccc2c1` [nafamostat, 6-carbamimidoylnaphthalen-2-yl 4-(diaminomethyleneamino)benzoate], the “effect on maximum concentration of active drug in blood plasma” value in data set [2] is recorded as “significantly reduced the maximum concentration of active drug in blood plasma”. Further, in data set [3], the “change of hydromorphone blood concentration on administering more pills” value is recorded as “little increase”. Further, the safety and tolerability entry in data set [1] (200 mg nafamostat, healthy volunteer SAD data) is “safe and well tolerated”.
